In brackets after ≈: the same amount, converted by molar mass. Where two headings read alike, the source gives them in different places.
Assays:
S. aureus ATCC 29213 [1] = test: MIC assay; assay type: cell-based, Staphylococcus aureus
Experimental: 1. Staphylococcus aureus—the principal staphylococcal test micro-organism used in these studies was Staphylococcus aureus ATCC 29213. This strain is the one recommended for QC/QA purposes in Minimum Inhibitory Concentration (MIC) assays by the US Clinical and Laboratory Standards Institute (formerly the NCCLS), an FDA-recognised body.
(§1) The staphylococci and enterococci were cultured and maintained on Mueller-Hinton Medium (agar and broth) at pH 7.2; they were incubated aerobically at 37° C. for 24 hours.
(§2) This is a standard international method for quantitatively assessing the antimicrobial activity of a compound in a liquid medium. The method used a 96-well microtitre plate, capable of holding about 200 μl of liquid per well. […] The culture media were as described above for the relevant test organisms.
(§3) The wells were inoculated with a liquid suspension of freshly grown micro-organism and incubated under the conditions described above. After incubation, the microtitre plate was examined visually (with the aid of a light box) for cloudiness in each well, which would indicate microbial growth. The MIC value was recorded as the lowest concentration of test compound required to inhibit microbial growth, i.e., the lowest concentration for which the liquid in the well remained clear.
(§4) The assays were conducted in duplicate and included both negative (culture medium only) and positive (culture medium, diluting solvent and inoculum) controls.
(§5) The following experiments all used S. aureus ATCC 29213 as the test organism. MIC, MBC and DDA assays, as described above, were carried out using a range of different benzoquinones and hydroquinones. Supplemented DDA assays, in the presence of salt, lipid and blood, were also conducted.

S. aureus ATCC 29213 [2] = test: MBC assay; assay type: cell-based, Staphylococcus aureus
Experimental: as §1
(§6) This assay, normally carried out after an MIC assay, determines the minimum concentration of a compound that is lethal to the micro-organism being tested.
(§7) These samples were then individually sub-cultured on non-selective agar medium, under the incubation conditions described above. Following incubation they were examined visually for bacterial growth.
as §5

S. aureus ATCC 29213 [3] = test: Disc diffusion assay (DDA); assay type: cell-based, Staphylococcus aureus; conditions: for zone of inhibition at 200 µg/disc: Staphylococcus aureus
Experimental: as §1
(§8) A sterile paper disc was impregnated with a sample of the test compound and a minimum of 30 minutes allowed for the solvents to evaporate as far as possible. The disc was then placed on an agar plate onto which the test micro-organism had been inoculated. The plate was then incubated under the conditions described above, following which it was examined visually for signs of bacterial growth. […] The diameter of this zone of “inhibition” was measured using a ProtoCOL™ automated zone sizer (Synbiosis, Cambridge, UK).
(§9) The area of the zone of inhibition was calculated from the measured zone diameter (D) using the formula π(D/2)^2.
(§10) For most DDA assays, 200 μg of each compound was loaded onto each disc.

S. aureus ATCC 29213 [4] = test: Supplemented disc diffusion assay; assay type: cell-based, Staphylococcus aureus; conditions: for zone of inhibition at 200 µg/disc: Staphylococcus aureus, ATCC29213, 24 h
Experimental: as §1, §8
(§11) Performance under these conditions can provide a more reliable indication of activity on topical application. For assays conducted using S. aureus strains, the supplements were defibrinated horse blood (5% v/v), lipid (Tween™ 80 at 1% v/v) and sodium chloride (100 mM). For those using Propionibacterium spp. strains, the supplements were lipid (Tween™ 80 at 1% v/v) and sodium chloride (100 mM).
as §5, §10

P. acnes NCTC 737 [5] = test: MIC assay; assay type: cell-based, Propionibacterium acnes
Experimental: 2. Propionibacterium spp.—the principal propionibacterial strain used in these studies was Propionibacterium acnes NCTC 737.
(§12) The Propionibacterium spp organisms were cultured and maintained on Wilkins-Chalgren Anaerobe Medium (agar and broth) at pH 6.0; cultures were incubated anaerobically at 37° C. for 72 hours.
as §2, §3, §4
(§13) MIC, MBC and DDA assays, as described above, were carried out using a range of different benzoquinones and hydroquinones. Supplemented DDA assays, in the presence of salt and lipid, were also conducted.

P. acnes NCTC 737 [6] = test: MBC assay; assay type: cell-based, Propionibacterium acnes
Experimental: as §12, §6, §7, §13

P. acnes NCTC 737 [7] = test: Disc diffusion assay (DDA); assay type: cell-based, Propionibacterium acnes; conditions: for zone of inhibition at 200 µg/disc: Cutibacterium acnes
Experimental: as §12, §8, §9, §10

P. acnes NCTC 737 [8] = test: Supplemented disc diffusion assay; assay type: cell-based, Propionibacterium acnes; conditions: for zone of inhibition at 200 µg/disc: Cutibacterium acnes, NCTC737, 72 h; for effect of lipid on antimicrobial activity: activity increases in the presence of lipid
Experimental: as §12, §8, §11, §13, §10

[9] = Staphylococcus aureus, ATCC29213, 24 h, pH 7.2
[10] = Staphylococcus aureus, ATCC29213
[11] = ATCC29213, read-out: DDA (diameter of zone of inhibition)
[12] = Cutibacterium acnes, NCTC737, 72 h, pH 6
[13] = NCTC737, read-out: DDA (diameter of zone of inhibition)

Row | Compound | MIC/MBC ratio (S. aureus ATCC 29213 [2]) | MIC/MBC ratio (P. acnes NCTC 737 [6]; P. acnes NCTC 737) | MIC (S. aureus ATCC 29213 [1]; [9]) [µg/mL] | MBC (S. aureus ATCC 29213 [2]; [10]) [µg/mL] | zone of inhibition at 200 µg/disc (S. aureus ATCC 29213 [3]; [11]) [mm] | zone of inhibition at 200 µg/disc (S. aureus ATCC 29213 [4]; read-out: DDA + blood) [mm] | zone of inhibition at 200 µg/disc (S. aureus ATCC 29213 [4]; read-out: DDA + lipid) [mm] | zone of inhibition at 200 µg/disc (S. aureus ATCC 29213 [4]; read-out: DDA + salt) [mm] | activity against P. acnes NCTC 737 (in words) (P. acnes NCTC 737 [5]) | MIC (P. acnes NCTC 737 [5]; [12]) [µg/mL] | MBC (P. acnes NCTC 737 [6]; Cutibacterium acnes, NCTC737) [µg/mL] | zone of inhibition at 200 µg/disc (P. acnes NCTC 737 [7]; [13]) [mm] | zone of inhibition at 200 µg/disc (P. acnes NCTC 737 [8]; read-out: DDA + lipid) [mm] | zone of inhibition at 200 µg/disc (P. acnes NCTC 737 [8]; read-out: DDA + salt) [mm] | effect of lipid on antimicrobial activity (P. acnes NCTC 737 [8]; P. acnes NCTC 737) | also measured
1 | Cc1cc(O)cc(C)c1O [2,6-dimethyl-p-hydroquinone] | 0.5 | 0.25 |  |  |  |  |  |  |  |  |  |  |  |  |  | MIC (S. aureus ATCC 29213 [1]; S. aureus ATCC 29213, Mueller-Hinton broth pH 7.2, aerobic, 37° C., 24 hours): 3.9 µg/mL (≈ 28.2 µM); MBC (S. aureus ATCC 29213 [2]): 7.8 µg/mL (≈ 56.5 µM); DDA (diameter of zone of inhibition) (S. aureus ATCC 29213 [3]; S. aureus ATCC 29213, unsupplemented agar, 200 μg per disc (thymoquinone 50 μg, 2,6-dimethoxy-p-benzoquinone 100 μg)): 40.88 mm; DDA + lipid (S. aureus ATCC 29213 [4]; S. aureus ATCC 29213, Tween 80 at 1% v/v, 200 μg per disc (thymoquinone 50 μg, 2,6-dimethoxy-p-benzoquinone 100 μg)): 47.94 mm; DDA + blood (S. aureus ATCC 29213 [4]; S. aureus ATCC 29213, defibrinated horse blood 5% v/v, 200 μg per disc (thymoquinone 50 μg, 2,6-dimethoxy-p-benzoquinone 100 μg)): 25.53 mm; DDA + salt (S. aureus ATCC 29213 [4]; S. aureus ATCC 29213, sodium chloride 100 mM, 200 μg per disc (thymoquinone 50 μg, 2,6-dimethoxy-p-benzoquinone 100 μg)): 43.89 mm; MIC (P. acnes NCTC 737 [5]; P. acnes NCTC 737, Wilkins-Chalgren broth pH 6.0, anaerobic, 37° C., 72 hours): 7.8 µg/mL (≈ 56.5 µM); MBC (P. acnes NCTC 737 [6]; P. acnes NCTC 737): 31.25 µg/mL (≈ 226 µM); DDA (diameter of zone of inhibition) (P. acnes NCTC 737 [7]; P. acnes NCTC 737, unsupplemented agar, 200 μg per disc (2,6-dimethoxy-p-benzoquinone 100 μg)): 0.0 mm; DDA + lipid (P. acnes NCTC 737 [8]; P. acnes NCTC 737, Tween 80 at 1% v/v, 200 μg per disc (2,6-dimethoxy-p-benzoquinone 100 μg)): 0.0 mm; DDA + salt (P. acnes NCTC 737 [8]; P. acnes NCTC 737, sodium chloride 100 mM, 200 μg per disc (2,6-dimethoxy-p-benzoquinone 100 μg)): 0.0 mm
2 | CC1=CC(=O)C(Cl)=CC1=O [2-chloro-5-methyl-p-benzoquinone] | 1 | 1 |  |  |  |  |  |  |  |  |  |  |  |  |  | MIC (S. aureus ATCC 29213 [1]; Staphylococcus aureus, ATCC29213, S. aureus ATCC 29213, Mueller-Hinton broth pH 7.2, aerobic, 37° C., 24 hours, read-out: MIC): 15.6 µg/mL (≈ 99.6 µM); MBC (S. aureus ATCC 29213 [2]; Staphylococcus aureus, ATCC29213, read-out: MBC): 15.6 µg/mL (≈ 99.6 µM); zone of inhibition at 200 µg/disc (S. aureus ATCC 29213 [3]; ATCC29213, S. aureus ATCC 29213, unsupplemented agar, 200 μg per disc (thymoquinone 50 μg, 2,6-dimethoxy-p-benzoquinone 100 μg), read-out: DDA (diameter of zone of inhibition)): 34.5 mm; zone of inhibition at 200 µg/disc (S. aureus ATCC 29213 [4]; S. aureus ATCC 29213, Tween 80 at 1% v/v, 200 μg per disc (thymoquinone 50 μg, 2,6-dimethoxy-p-benzoquinone 100 μg), read-out: DDA + lipid): 33.9 mm; zone of inhibition at 200 µg/disc (S. aureus ATCC 29213 [4]; S. aureus ATCC 29213, defibrinated horse blood 5% v/v, 200 μg per disc (thymoquinone 50 μg, 2,6-dimethoxy-p-benzoquinone 100 μg), read-out: DDA + blood): 17.7 mm; zone of inhibition at 200 µg/disc (S. aureus ATCC 29213 [4]; S. aureus ATCC 29213, sodium chloride 100 mM, 200 μg per disc (thymoquinone 50 μg, 2,6-dimethoxy-p-benzoquinone 100 μg), read-out: DDA + salt): 34.2 mm; MIC (P. acnes NCTC 737 [5]; Cutibacterium acnes, NCTC737, P. acnes NCTC 737, Wilkins-Chalgren broth pH 6.0, anaerobic, 37° C., 72 hours, read-out: MIC): 15.6 µg/mL (≈ 99.6 µM); MBC (P. acnes NCTC 737 [6]; Cutibacterium acnes, NCTC737, P. acnes NCTC 737, read-out: MBC): 15.6 µg/mL (≈ 99.6 µM); zone of inhibition at 200 µg/disc (P. acnes NCTC 737 [7]; NCTC737, P. acnes NCTC 737, unsupplemented agar, 200 μg per disc (2,6-dimethoxy-p-benzoquinone 100 μg), read-out: DDA (diameter of zone of inhibition)): 38.9 mm; zone of inhibition at 200 µg/disc (P. acnes NCTC 737 [8]; P. acnes NCTC 737, Tween 80 at 1% v/v, 200 μg per disc (2,6-dimethoxy-p-benzoquinone 100 μg), read-out: DDA + lipid): 38.8 mm; zone of inhibition at 200 µg/disc (P. acnes NCTC 737 [8]; P. acnes NCTC 737, sodium chloride 100 mM, 200 μg per disc (2,6-dimethoxy-p-benzoquinone 100 μg), read-out: DDA + salt): 37.2 mm
3 | O=C1C=CC(=O)C(Cl)=C1 [2-chloro-p-benzoquinone] | 1 | 0.5 | 31.2 (≈ 219 µM) | 31.2 (≈ 219 µM) | 25.3 | 17.2 | 22.8 | 26.2 | strongly so | 62.5 (≈ 438 µM) | 125 (≈ 877 µM) | 25.8 | 31.4 | 31.7 | potentiated | 
4 | CC1=CC(=O)C=CC1=O [2-methyl-p-benzoquinone] | 1 | 0.5 | 15.6 (≈ 128 µM) | 15.6 (≈ 128 µM) | 35.1 | 15.9 | 35.6 | 35 | strongly so | 15.6 (≈ 128 µM) | 31.2 (≈ 256 µM) | 35.9 | 48.9 | 42.6 | potentiated | 
